# Reference: the supplement of paper PMC10307832
# What was measured:
# Test in all cases: relative viability (nuclei count vs DMSO), 5 days (fraction); higher = more cells survive
# [1] = compound: CCN1C(=O)C2=CC(=C(N=C2N(C1=O)C3CC3)N)C(=O)N + O=C(CCCCCCC(=O)Nc1ccccc1)NO [Vorinostat] (partner 1 µM)
# Outline: (§1)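 Nuclei were stained with Hoechst during a one-step fixation (final 0.05% Triton X-100, 1% formaldehyde, 1 ug/ml Hoechst) carried out 5 days after dosing, then counted on 4× images. The cells, lung cancer lines in 1536-well plates, had been dosed by pin tool the day after seeding with one drug alone or a fixed anchor-drug dose plus five library-drug doses (not always all listed) in √10 steps. Relative viability is the nuclei count in treated wells divided by that in vehicle wells, and each value is the median of duplicate plates.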
# [2] = compound: CCN1C(=O)C2=CC(=C(N=C2N(C1=O)C3CC3)N)C(=O)N + CC(C)C[C@H](NC(=O)[C@H](Cc1ccccc1)NC(=O)c1cnccn1)B(O)O [Bortezomib] (partner 0.002 µM)
# Outline: as §1
# [3] = compound: CCN1C(=O)C2=CC(=C(N=C2N(C1=O)C3CC3)N)C(=O)N + COc1cc2c(Oc3ccc(NC(=O)C4(C(=O)Nc5ccc(F)cc5)CC4)cc3F)ccnc2cc1OCCCN1CCOCC1 [Foretinib] (partner 0.25 µM)
# Outline: as §1
# [4] = compound: CCN1C(=O)C2=CC(=C(N=C2N(C1=O)C3CC3)N)C(=O)N + CCNC(=O)c1noc(-c2cc(C(C)C)c(O)cc2O)c1-c1ccc(CN2CCOCC2)cc1 [Luminespib] (partner 0.01 µM)
# Outline: as §1
# [5] = compound: CCN1C(=O)C2=CC(=C(N=C2N(C1=O)C3CC3)N)C(=O)N + Cc1cc(Nc2cc(N3CCN(C)CC3)nc(Sc3ccc(NC(=O)C4CC4)cc3)n2)n[nH]1 [Tozasertib] (partner 0.1 µM)
# Outline: as §1
Cell Line,relative viability ([1]; first compound 0.253 µM),relative viability ([1]; first compound 0.8 µM),relative viability ([1]; first compound 2.53 µM),relative viability ([1]; first compound 8 µM),relative viability ([2]; first compound 0.253 µM),relative viability ([2]; first compound 0.8 µM),relative viability ([2]; first compound 2.53 µM),relative viability ([2]; first compound 8 µM),relative viability ([3]; first compound 0.8 µM),relative viability ([3]; first compound 2.53 µM),relative viability ([3]; first compound 8 µM),relative viability ([4]; first compound 0.8 µM),relative viability ([4]; first compound 2.53 µM),relative viability ([4]; first compound 8 µM),relative viability ([5]; first compound 0.8 µM),relative viability ([5]; first compound 2.53 µM),relative viability ([5]; first compound 8 µM),relative viability ([3]; first compound 0.253 µM),relative viability ([4]; first compound 0.253 µM),relative viability ([5]; first compound 0.253 µM)
NCI-H1666,1.05,0.99,1,1.09,0.739,0.692,0.848,0.74,0.857,0.948,1.04,1.02,1.07,1.05,0.608,0.584,0.618,–,–,–
NCI-H1734,0.744,0.762,0.811,0.784,0.953,0.999,0.918,1,0.764,0.745,1.01,0.215,0.191,0.233,0.278,0.233,0.25,0.835,0.67,0.373
NCI-H1755,0.743,0.722,0.76,0.719,0.949,0.966,0.921,0.948,0.887,0.914,0.875,0.412,0.528,0.51,0.515,0.514,0.528,0.974,0.455,0.567
NCI-H1915,0.49,0.546,0.493,0.436,0.968,0.93,0.955,0.955,1.09,1.11,1.04,0.775,0.873,0.892,0.33,0.393,0.416,1.05,0.852,0.451
NCI-H1975,0.733,0.772,0.697,0.757,0.378,0.423,0.413,0.439,0.916,0.895,0.951,0.283,0.222,0.276,0.737,0.608,0.331,1.02,0.167,0.738
NCI-H1993,0.0267,0.735,0.76,0.853,1.05,0.925,0.983,1.11,0.751,0.625,0.822,0.877,0.612,0.832,0.569,0.537,0.512,0.819,1.78,0.6
NCI-H2009,0.732,0.647,0.62,0.663,0.963,1.09,0.965,0.94,1.18,1.2,1.12,1.08,0.943,0.916,0.751,0.697,0.809,1.2,1.02,0.732
NCI-H2023,0.628,0.58,0.68,0.712,0.829,0.915,0.95,0.984,0.743,0.845,0.848,0.726,0.781,0.792,0.32,0.241,0.233,0.756,0.857,0.402
NCI-H2085,0.767,0.764,0.747,0.782,0.971,1.1,1.04,0.996,0.874,0.834,0.947,0.408,0.355,0.493,0.726,0.867,0.613,0.992,0.378,0.85
NCI-H2087,0.634,1.23,0.911,0.676,0.837,0.845,0.781,0.985,1.25,1.08,1.12,0.193,0.132,0.189,0.249,0.214,0.266,1.04,0.229,0.258
NCI-H2126,0.846,0.803,0.765,0.797,1.14,1.14,1.16,1.05,0.76,1.09,1.12,0.911,0.993,0.779,0.798,0.801,0.828,1.34,0.877,0.86
NCI-H2228,0.933,0.572,0.676,0.679,1.03,1.01,1.12,1.24,0.982,0.82,0.839,0.167,0.203,0.11,0.189,0.233,0.162,0.95,0.132,0.205
NCI-H2347,0.634,0.462,0.623,0.639,0.982,0.933,1.19,0.778,1.09,1.43,1.09,0.469,0.774,0.341,0.61,0.572,0.482,0.797,1.03,0.666
NCI-H2405,1.21,–,1.26,1.14,1,1.05,1.01,0.952,1.05,1.07,1.06,0.844,0.755,0.652,0.777,0.757,0.732,1.04,0.668,0.823
NCI-H3122,0.912,0.975,0.968,0.988,1.04,1.01,1.02,1.01,0.991,0.968,0.916,0.0714,0.0957,0.0756,0.369,0.376,0.533,1.02,0.0925,0.393
PC-3 [JPC-3],0.93,–,1.22,1.08,0.874,0.799,0.914,0.801,1.03,1,0.929,0.709,0.663,0.823,0.872,0.925,0.869,1.02,0.661,0.911
